Tests used:
[1] = system: inactivating A-type K^+ channels (IA); test: whole-cell patch clamp, inactivating A-type K^+ current (IA) in rat fungiform taste receptor cells; format: cell-based, rat (Sprague-Dawley); conditions: 4-AP 10 mM; in presence of arachidonic acid; n=10 cells
Protocol: (§1) Voltage-activated currents were recorded from individual taste receptor cells maintained in the taste bud using the whole-cell patch clamp configuration, as generally described in Hamill et al., "Improved Patch-clamp Techniques for High-resolution Current Recording from Cells and Cell-free Membrane Patches," Pflugers Arch., Vol. 391, pp. 85-100 (1981). […]
(§2) Typical seal resistances on TRC membranes ranged from […] to greater than 50 G.OMEGA.. […] Commands were delivered and data recorded using pCLAMP software (version 6.0.3) interfaced to an AxoPatch 200A amplifier with a Digidata 1200A A-D board (Axon Instruments, Foster City, Calif.). […]
(§3) For analysis, currents during FFA application were averaged over a consistent time range corresponding to the steady-state condition, and were compared to currents in control (Tyrode's) solution. […] For analysis of delayed rectifying K^+ channels, currents were measured at command potentials of +40 mV during steady-state; inwardly rectifying currents, when investigated, were measured at -130 mV. Significant effects of FFAs on K^+ currents were determined by paired Student's t tests (α=0.05) compared to control currents immediately preceding the test stimulus. […]

[2] = system: delayed rectifier K^+ channel; test: whole-cell patch clamp, delayed rectifier K^+ channel (steady-state outward K^+ current at +40 mV) in rat fungiform taste receptor cells; format: cell-based, rat (Sprague-Dawley)
Description: (§4) The effects of free fatty acids ("FFAs") on taste buds isolated from rat fungiform papillae were examined to determine if a chemosensory (i.e. non-textural) cue for fats is located in the mouth. The methods used to isolate TRCs were generally as described in Behe et al., "Membrane Currents in Taste Cells of the Rat Fungiform Papilla: Evidence for Two Types of Ca Currents and Inhibition of K Currents by Saccharin," Journal of General Physiology, Vol. 96, pp. 1061-1084 (1990); Doolin et al., "Distribution and Characterization of Functional Amiloride-sensitive Sodium Channels in Rat Tongue," Journal of General Physiology, Vol. 107. pp. 545-554 (1996); and Gilbertson et al., "Proton Currents Through Amiloride-sensitive Na^+ Channels in Isolated Hamster Taste Cells: Enhancement by Vasopressin and cAMP," Neuron, Vol. 10, pp. 931-942 (1993).
(§5) Individual fungiform taste buds were isolated from the tongues of 2- to 5-month-old male Sprague-Dawley rats (Harlan Sprague Dawley, Indianapolis,Ind.). Animals were housed individually in polycarbonate cages with food (Purina #5001, Purina Mills, St. Louis, Mo.) provided ad lib. The room containing the rats was maintained at 21-23° C. on a 0700-1900 h light-dark cycle. All animal care and experimental procedures were in accordance with National Institutes of Health guidelines, and were approved by the Institutional Animal Care and Use Committee of the Pennington Biomedical Research Center.
(§6) Tongues were removed from euthanized rats, and were immediately placed in ice-cold Tyrode's solution. To remove the lingual epithelium containing the taste buds from the underlying muscle layer, approximately 1.0 ml of Tyrode's solution containing 0.3 mg/ml collagenase A (Boehringer Mannheim Corp., Indianapolis, Ind.), 2.5 mg/ml dispase (grade II; Boehringer Mannheim) and 1.0 mg/ml trypsin inhibitor (type I-S; Sigma Chemical Co., St. Louis, Mo.) was injected below the epithelium. The injected tongue was placed in Ca--Mg free Tyrode's solution and bubbled with O2 for 33-35 min. The lingual epithelium was removed and pinned serosal side up, allowing access to the taste buds. Fungiform taste buds were removed individually by gentle suction with a large, firepolished pipette (~200 μm diameter), and were plated onto Cell-Tak™-coated microscope slides (Collaborative Biomedical Prod., Bedford, Mass.) fitted with an O-ring which served as a recording chamber. Once plated, cells were perfused continually with Tyrode's or various test solutions. Taste buds isolated in this manner were used for up to 6 hours without any noticeable morphological or physiological decrement.
(§7) All chemicals were obtained from Sigma Chemical Corporation (St. Louis, Mo.) unless otherwise indicated. Normal extracellular solution (Tyrode's) contained (in mM): NaCl, 140; KCl, 5; CaCl2, 1; MgCl2, 1; HEPES (N-[2-hydroxyethyl] piperazine-N'-[2-ethanesulfonic acid), 10; glucose, 10; and sodium pyruvate, 10. The pH was adjusted to 7.40 with NaOH. In Ca^2+ --Mg^2+ free Tyrode's solution, 2 mM BAPTA (1,2-bis(2-aminophenoxy) ethane-N,N,N',N'-tetraacetic acid) (Molecular Probes, Eugene, Oreg.) replaced CaCl2 and MgCl2. Other components were identical to Tyrode's solution. Intracellular (pipette) solution contained (in mM): KCl, 140; CaCl2, 1 [free Ca^2+ was ~10^-8 M]; MgCl2, 2; HEPES, 10; EGTA (ethylene glycol-bis(β-aminoethylether)-N,N,N',N'-tetraacetic acid), 11; and ATP, 3. The pH was adjusted to 7.20 with KOH.
(§8) Free fatty acids (FFAs) were stored below -20° C. until the day of use, when they were dissolved in warm ethanol and diluted to final working concentrations in Tyrode's solution. Final ethanol concentrations in Tyrode's were below 0.1%; the ethanol had no effect on ionic currents in any TRCs. All FFAs were applied by bath perfusion. In some experiments, FFA-containing solutions were bubbled continuously with nitrogen to retard oxygenation. […]

[3] = system: inwardly rectifying K^+ channels (Kir); test: whole-cell patch clamp, inwardly rectifying K^+ channels (Kir) at -130 mV in rat fungiform taste receptor cells; format: cell-based, rat (Sprague-Dawley)
Description: as §4, §5, §6, §7, §8

[4] = system: delayed rectifying K^+ channels; test: patch clamp, delayed rectifying K^+ channels of TRCs isolated from Osborne-Mendel rats; format: cell-based
Description: (§9) To determine if there is a link between the sensitivity of TRCs to PUFAs and dietary fat preferences, the PUFA-sensitivities of TRCs using patch clamp techniques were compared on TRCs isolated from Osborne-Mendel ("O-M") rats and S5B/P1 rats, strains with different dietary preferences. O-M rats prefer fat over carbohydrate, while S5B/P1 rats prefer carbohydrate over fat. […] Rats whose TRCs were more sensitive to the fatty acids have a preference for a lower-fat diet; while rats whose TRCs are less sensitive to fatty acids seek diets that are higher in fat.

[5] = system: delayed rectifying K^+ channels; test: patch clamp, delayed rectifying K^+ channels of TRCs isolated from S5B/P1 rats; format: cell-based
Description: as §9

cardiac atrial cells = conditions: applied extracellularly; cited from earlier work
[6] = system: ATP-inhibitable K channel (KATP); test: whole-cell patch clamp, ATP-inhibitable K channel (KATP) residual current in rat fungiform taste receptor cells; format: cell-based, rat (Sprague-Dawley); conditions: glyburide 20 μM; in presence of arachidonic acid and 4-AP; n=6 cells
Protocol: as §1, §2, §3

In the case of `Nc1ccncc1` [4-aminopyridine], the “inhibition of the rapidly inactivating current (IA)” value [1] is reported as “reversibly and completely inhibited”.

In the case of `CCCCC/C=C\C/C=C\C/C=C\C/C=C\CCCC(=O)O` [arachidonic acid], the “effect on outward K^+ currents, specificity test” value ([2]; 10 μM, >10 min (maximal effect), significance by paired t test) is reported as “significantly reduced outward K^+ currents”, the “inhibition of the voltage-activated steady-state outward K^+ current” value ([2]; 10 μM, +40 mV, n=44 cells) is reported as 83% and the “mean time constant (ton) for the onset of effects” value ([2]; 10 μM, n=18 cells) is reported as 4.37 ± 1.8 min. For the same compound, the “inhibition of delayed rectifier K^+ channel in presence of NDGA and indomethacin” value ([2]; NDGA 10 μM and indomethacin 200 μM, n=5 cells) was “inhibited the delayed rectifier K^+ channel”, the “effect on outward K^+ currents / delayed rectifier K^+ channel (in words)” value ([2]; arachidonic acid 0.25-100 μM, extracellular, all cells examined) was “reversible, slowly developing inhibition of the delayed rectifier K^+ channel” and the “time to reach maximum effect on outward K^+ currents” value ([2]; extracellular arachidonic acid) was 10 to 15 min. For the same compound, the “recovery time constant (toff) from inhibition” value ([2]; n=18 cells) was 10.92 ± 5.9 min, the “time constant for inactivation of the outward K^+ current” value ([2]; presence of 10 μM arachidonic acid, control 457±103 msec, n=20) was 42 ± 26 ms and the Ki ([2]; read-out: inhibition constant (Ki) for the delayed rectifier K^+ channel) was 1.02 µM. The “stimulation of taste receptor cells” value ([2]; summary statement) was “stimulate taste receptor cells”, the “change of Kir over control levels, in words” value ([3]; 10 μM arachidonic acid, approximately 30% of cells) was “approximately doubling Kir over control levels” and the “Kir compared to control” value ([3]; 10 μM, -130 mV, n=16 cells, % of control) was 191%±19.7. For the same compound, the “share of cells in which Kir was activated” value ([3]; 10 μM, subset of cells, of the total) was “approximately 30%”, the “activation of Kir in cells that did not show this current in control” value ([3]; cells without Kir in control (saline) conditions) was “not able to activate Kir” and the “effect on inward currents in cells without inward rectification” value ([3]; potentials more negative than -100 mV, n=37 cells) was “not significantly affected”. For the same compound, the “inhibition of the delayed rectifying K^+ channels, O-M rats” value [4] was “inhibited the delayed rectifying K^+ channels in a concentration-dependent manner”, the “sensitivity of S5B/P1 TRCs to inhibition compared with O-M TRCs” value ([5]; 10 μM, versus TRCs from O-M rats) was “significantly more sensitive to inhibition” and the “inhibition of the delayed rectifying K^+ channels, S5B/P1 rats” value ([5]; TRCs from S5B/P1 rats) was “inhibited the delayed rectifying K^+ channels in a concentration-dependent manner”. For the same compound, the “response of cardiac cells” value (cardiac atrial cells) was “responded”.

With `COc1ccc(Cl)cc1C(=O)NCCc1ccc(S(=O)(=O)NC(=O)NC2CCCCC2)cc1` [glyburide] the “block of the residual (KATP) current” value [6] was “blocked the residual current”.

Reference: US6166076A, “Taste enhancing food additives” (Board of Supervisors of Louisiana State University and …, priority 1997, dated 2000)
